# Reference: patent US6544727B1, “Methods and devices for the removal of psoralens from blood products” (Cerus Corporation, priority 1995, dated 2003)
# Assays:
# [1] = Batch adsorption of 3H-S-59 and photoproducts from illuminated PC, residual radioactivity (Table F); assay type: physicochemical
# Experimental: The removal of residual S-59 and S-59 photoproducts from illuminated PC by batch adsorption was investigated. […] Two separate platelet units were treated for each adsorbent; one unit was agitated for 3 hours before the platelets were separated from the adsorbent and transferred to another bag, and the other platelet unit was left in contact with the adsorbent for 4 days. Samples were removed from the units before treatment, after 3 hours of contact with the adsorbent, and on day 4.
# [2] = Batch adsorption of S-59 and photoproducts from illuminated PC, HPLC (Examples 27, 28); assay type: physicochemical
# Experimental: The peak corresponding to S-59 is present in the chromatograms representing non-illuminated S-59 (top) and illuminated S-59 (middle) at a retention time of approximately 12 minutes. The other peaks in the chromatogram representing illuminated S-59 (middle) (besides the injection peak at about 3 minutes) correspond to S-59 photoproducts formed during illumination. Note that the peaks appear at time (t)=18 minutes and t=20 minutes are plasma species and are not related to S-59. The peaks which remain in the bottom panel are not S-59 photoproducts, so removal of S-59 and photoproducts was essentially complete in this case as indicated by HPLC (i.e., non-detectable by HPLC).
# platelets = assay: In vitro platelet function after photochemical treatment and 8-hour RD treatment (Tables O, P); assay type: cell-based, human; conditions: RD 8 hours; for pH: T: 150 μM S-59, 3 Joules/cm^2 UVA; for (%) Aggregation / (%) HSR / (%) Microvesicle Formation / (%) p-Selectin-Positive / ATP / Bicarbonate / Glucose / Lactate / Morphology (Out Of 400) / Platelet Shape Change / Platelet count / pCO2 / pO2: T: S-59, UVA
# Experimental: Two ABO-matched single donor PCs containing 2−5×10^11 platelets in approximately 300 mL of 35% plasma and 65% PAS III were pooled and redivided into two identical units in PL 2410 Plastic containers (Baxter). One unit (the control) was immediately placed on a platelet shaker and stored at approximately 22° C. The other unit (the test) was treated with 150 μM S-59 and 3 Joules/cm^2 UVA. After treatment, the platelets suspension was transferred into a second PL 2410 Plastic container containing a RD. Contact between platelets and the RD occurred for a period of approximately 8 hours, then the platelet suspension was transferred to a new PL 2410 Plastic container for storage. The time of blood donation was defined as day 0. Treatment with S-59, UVA (320-400 nm), and the RD was performed on day 1. Six replicate experiments were carried out, each with a different pool of two ABO-matched single-donor platelet concentrates.
# For the evaluation of in vitro platelet function, platelet samples were withdrawn from both the control and test units before treatment and after treatment on days 2, 5, and 7. The following parameters were analyzed: pH, pO2, pCO2, bicarbonate concentration, platelet count, morphology, aggregation, platelet shape change, hypotonic shock response, lactate production, glucose consumption, ATP secretion, p-selectin expression, and microvesicle formation. Several of these assays, including pH, morphology score, platelet shape change, and hypotonic shock response, have been reported in the literature to correlate with in- vivo post-transfusion recovery and survival. The Student's paired t-test was used for statistical analysis.
# For platelet count measurement, the volume of the control unit is approximately 5% less than the volume of the paired test unit; thus, for statistical analysis the platelet count per μL for the test unit was adjusted by a factor of […]. The pH of the treated platelets was maintained at 6.91±0.05 after seven days of storage following treatment.
compound,measurement,setting,value
"Cc1oc2c(C)c3oc(=O)cc(C)c3cc2c1COCCN [Compound 2, 4′-(4-amino-2-oxa)butyl-4,5′,8-trimethylpsoralen]",counts as 3H exchanged water,"[1]; 3H-S-59, illuminated PC",about 10%
same,counts associated with plasma macromolecules,"[1]; 3H-S-59, illuminated PC",about 18%
same,counts associated with platelet macromolecules,"[1]; 3H-S-59, illuminated PC",about 15%
same,non-adsorbed radioactivity,"[1]; 3H-S-59, illuminated PC treated with adsorbent for 4 days",36-37%
same,removal of S-59,"[2]; at 2 hours, Amberlite XAD-4 10 g/300 mL, illuminated platelets in 35% plasma/[…]% PAS III, HPLC",greater than 99%
same,S-59 and low molecular weight photoproducts adsorbed from PCs,"[2]; batch devices, appropriate adsorbents",greater than 99%
same,pH,platelets; Day 2,6.94 ± 0.05
same,pH,platelets; Day 5,6.92 ± 0.06
same,pH,platelets; Day 7,6.91 ± 0.05
same,(%) Aggregation,platelets; Day 2,88 ± 4%
same,(%) HSR,platelets; Day 2,52 ± 5 %
same,(%) Microvesicle Formation,platelets; Day 2,0.9 ± 0.2%
same,(%) p-Selectin-Positive,platelets; Day 2,49 ± 5 %
same,ATP,platelets; Day 2,1.0 ± 0.1 Nmoles Per 10^8 Platelets
same,Bicarbonate,platelets; Day 2,6.3 ± 0.3 mM
same,Glucose,platelets; Day 2,4.6 ± 0.9 mM
same,Lactate,platelets; Day 2,4.7 ± 1.2 mM
same,Morphology (Out Of 400),platelets; Day 2,302 ± 16
same,Platelet Shape Change,platelets; Day 2,1.0 ± 0.1
same,Platelet count,platelets; Day 2,1545 ± 247 × 10^−3/μL
same,pCO2,platelets; Day 2,29.2 ± 3.8 mm Hg
same,pO2,platelets; Day 2,68.3 ± 19.4 mm Hg
same,(%) Aggregation,platelets; Day 5,81 ± 7%
same,(%) HSR,platelets; Day 5,45 ± 3%
same,(%) Microvesicle Formation,platelets; Day 5,0.8 ± 0.2%
same,(%) p-Selectin-Positive,platelets; Day 5,58 ± 5%
same,ATP,platelets; Day 5,0.7 ± 0.2 Nmoles Per 10^8 Platelets
same,Bicarbonate,platelets; Day 5,4.8 ± 0.5 mM
same,Glucose,platelets; Day 5,2.1 ± 1.1 mM
same,Lactate,platelets; Day 5,8.5 ± 1.6 mM
same,Morphology (Out Of 400),platelets; Day 5,290 ± 20
same,Platelet Shape Change,platelets; Day 5,0.9 ± 0.1
same,Platelet count,platelets; Day 5,1525 ± 246 × 10^−3/μL
same,pCO2,platelets; Day 5,23.7 ± 3.5 mm Hg
same,pO2,platelets; Day 5,84.8 ± 22.5 mm Hg
same,(%) Aggregation,platelets; Day 7,81 ± 4%
same,(%) HSR,platelets; Day 7,48 ± 8%
same,(%) Microvesicle Formation,platelets; Day 7,1.7 ± 1.7%
same,(%) p-Selectin-Positive,platelets; Day 7,60 ± 7%
same,ATP,platelets; Day 7,0.6 ± 0.2 Nmoles Per 10^8 Platelets
same,Bicarbonate,platelets; Day 7,4.2 ± 0.7 mM
same,Glucose,platelets; Day 7,0.8 ± 0.8 mM
same,Lactate,platelets; Day 7,10.8 ± 1.3 mM
same,Morphology (Out Of 400),platelets; Day 7,274 ± 12
same,Platelet Shape Change,platelets; Day 7,0.9 ± 0.3
same,Platelet count,platelets; Day 7,1500 ± 219 × 10^−3/μL
same,pCO2,platelets; Day 7,20.7 ± 2.4 mm Hg
same,pO2,platelets; Day 7,88.8 ± 20.2 mm Hg
